Measured values as given in patent US4540709A, “Method for treatment of diseases mediated by PAF using 5-allyl-2-(3,4-Dimethoxyphenyl)-3a,α-methoxy-3-methyl-2,3,3a,6-tet rahydro-6-oxobenzofuran” (Merck & Co., Inc., priority 1983, dated 1985).

Experiments:
H1 = experiment: Binding of H1 antagonist (3H-pyrilamine) to guinea pig brain membrane
rabbit platelets = experiment: PAF-induced platelet aggregation (rabbit platelets); format: cell-based; details: in vitro
guinea pig smooth muscle = experiment: PAF-induced guinea pig smooth muscle contraction; details: in vitro
human platelets = experiment: PAF-induced platelet aggregation (human platelets); format: cell-based; details: in vitro
[1] = molecular target: T1, PAF specific receptor binding site on rabbit platelet plasma membranes (Oryctolagus cuniculus, UniProt G1TEI7); experiment: Inhibition of 3H-PAF binding to rabbit platelet plasma membrane; details: in vitro, 0° C., pH 7.5
T1 construct: from tissue; host or cells: rabbit platelet plasma membranes
Description: In vitro, compound (I) inhibits PAF-induced functions in both the cellular and the tissue levels by disturbing the PAF binding to its specific receptor site. The ability of compound (I) to inhibit the PAF binding to its specific receptor binding site on rabbit platelet plasma membranes was measured by an assay recently developed by us.
The inhibition of H^3 -PAF binding to the rabbit platelet plasma membrane by compound (I) was determined by a method employing isotopic labeling and filtration techniques. Generally, a series of Tris-buffered solutions of the selected antagonist at predetermined concentrations were prepared. […] Ten […] of scintillation solution (Aquasol 2, New England Nuclear, Connecticut) was added with stirring to each filter containing the washed residue, and the radioactivity of each resulting suspension was counted in a Packard Tri-Carb 460CD Liquid Scintillation System. Defining the counts from a test sample as "Total binding with antagonist"; the counts from the control sample C1, as "Total binding C1 "; and the counts from the control sample C2 as "non-specific binding C2 ", the percent inhibition of each test antagonist can be determined by the following equation: [formula]

[2] = test system: guinea pig peritoneal PMN (polymorphonuclear leukocytes); experiment: PAF-induced guinea pig peritoneal PMN aggregation; format: cell-based; details: in vitro
[3] = test system: PAF-induced cutaneous vascular permeability; experiment: Inhibition of PAF-induced increase of cutaneous vasopermeability, oral activity (Evans Blue); format: in vivo; details: guinea pig
From the text: The specific PAF-antagonistic activities are further established by an in vivo assay (modified procedure of Humphrey et al., Lab. Investigation 46, 422 (1982)) following the protocol described below:
Protocol for the evaluation of the oral activity of PAF antagonists or the inhibition of PAF-induced increase of vasopermeability by PAF-antagonists
I. Animal species: 5 guinea pigs (400-500 g)
0.5% (w/v) aqueous methylcellulose solution sodium nembutol
2% Evans Blue solution: 2 g of Evans Blue in 100 ml of pH 7.5 Tris-buffer solution
Tris-Buffer solution: 150 mM NaCl and 10 mM Tris in […] of water with pH adjusted to 7.5.
1. Weigh the guinea pigs. Label them as control, T1, T2, T3 and T4.
2. Fast the animals overnight.
3. Weigh the animals again after the fasting.
4. Ground and suspend a PAF antagonist such as compound (I) with intensive sonication in 3 ml of 0.5% aqueous methylcellulose solution.
5. Administer orally to each of the animals T1, T2, T3 and T4 an appropriate amount (in terms of mg/kg of bodyweight) of the antagonist solution from 4.), except the control animal which should receive only the 0.5% aq. methylcellulose solution.
6. Forty minutes after the oral administration, anesthetize the animals with sodium nembutol (0.75 ml/kg i.p.).
7. After 20 minutes or when tne anesthetics became effective, inject intracardially to each animal 2 ml/kg body weight of the 2% Evans Blue solution.
8. Wait for 10 minutes. In the meantime, shave the backs of the guniea pigs and get ready for the PAF injection. Select two rows of 5 (a total of ten) sites on the back of each animal and designate them as sites […]
______________________________________
and inject intracutaneously, in duplicate 0.1 ml of a PAF solution in Tris-buffer or 0.1 ml of the Tris-buffer itself (control) according to the following schedule: […]
Sites Solution to be injected […]
15. Measure the absorbance of each supernatant from Step (14) ("skin sample") as well as the plasma extract from Step (13) ("plasma sample") at 620 nm with a Cary 210 spectrophotometer (Varian, Palo Alto, Calif.). […]

guinea pig ileum = experiment: Histamine-induced ileum contraction in guinea pigs
human PMN = experiment: PAF-induced human PMN secretion; format: cell-based; details: in vitro

T1 sequence (G1TEI7 1-342): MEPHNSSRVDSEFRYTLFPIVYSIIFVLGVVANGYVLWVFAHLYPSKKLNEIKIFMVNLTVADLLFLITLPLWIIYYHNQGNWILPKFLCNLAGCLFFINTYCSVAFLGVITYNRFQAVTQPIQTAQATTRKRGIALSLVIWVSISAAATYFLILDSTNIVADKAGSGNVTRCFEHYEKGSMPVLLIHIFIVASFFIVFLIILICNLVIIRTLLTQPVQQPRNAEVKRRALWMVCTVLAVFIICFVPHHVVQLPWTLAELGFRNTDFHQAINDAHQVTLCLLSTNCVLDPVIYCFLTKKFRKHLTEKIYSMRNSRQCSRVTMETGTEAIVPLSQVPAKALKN

`C=CCC1=CC2(OC)C(=CC1=O)OC(c1ccc(OC)c(OC)c1)C2C` (stereo not drawn) [Compound (I), 5-allyl-2-(3,4-dimethoxyphenyl)-3a,α-methoxy-3-methyl-2,3,3a,6-tetrahydro-6-oxobenzofuran] was tested. Which “inhibition of binding of H1 antagonist (3H-pyrilamine)” value (H1) did it give?
The value was “do not inhibit”.

What about the “inhibition of PAF-induced platelet aggregation” value (rabbit platelets) of the same compound?
Its value is “inhibits”.

What about the “inhibition of PAF-induced smooth muscle contraction” value (guinea pig smooth muscle) of the same compound?
Its value is “inhibits”.

And the “inhibition of PAF-induced platelet aggregation” value (human platelets)?
Its value is “inhibits”.

What about the IC50 [1] of the same compound?
The IC50 was 0.174 µM.

And the “inhibition of PAF-induced peritoneal PMN aggregation” value [2]?
The value was “inhibits”.

And the “% inhibition” value ([3]; 25 mg/kg P.O.)?
The value was 43%.

And the “% inhibition” value ([3]; 50 mg/kg P.O.)?
The value was 63%.

What about the ED50 ([3]; Cavia porcellus, po, P.O.) of the same compound?
The ED50 was 30 mg/kg.

What about the “inhibition of histamine-induced ileum contraction” value (guinea pig ileum) of the same compound?
Its value is “no or only minute inhibition”.

What about the “inhibition of PAF-induced PMN secretion” value (human PMN) of the same compound?
Its value is “inhibits”.
